Assay results as given in the supplement of paper PMC10307832.

Key:
Assay in all cases: relative viability (nuclei count vs DMSO), 5 days (fraction); higher = more cells survive
[1] = compound: C1=CC2=C(C=C(C(=C2N=C1)O)N=NC3=CC4=C(C=C3)C=C(C=C4)S(=O)(=O)O)S(=O)(=O)O + Nc1ncn([C@H]2C[C@H](O)[C@@H](CO)O2)c(=O)n1 [Decitabine] (partner 2 µM)
Outline: (§1)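 Relative viability was taken as the ratio of nuclei in treated wells to nuclei in vehicle wells. Lung cancer cell lines in 1536-well plates received compounds by pin tool one day after seeding, either one drug alone or a fixed anchor-drug dose plus five library-drug doses (not always all listed) in √10 steps. Nuclei were counted on 4× images after 5 days of treatment, and values are medians of duplicate plates.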

[2] = compound: C1=CC2=C(C=C(C(=C2N=C1)O)N=NC3=CC4=C(C=C3)C=C(C=C4)S(=O)(=O)O)S(=O)(=O)O + N=C(N)NC(=N)NCCc1ccccc1 [Phenformin] (partner 250 µM)
Outline: as §1

[3] = compound: C1=CC2=C(C=C(C(=C2N=C1)O)N=NC3=CC4=C(C=C3)C=C(C=C4)S(=O)(=O)O)S(=O)(=O)O + CC(=O)Nc1cccc(-n2c(=O)n(C3CC3)c(=O)c3c(Nc4ccc(I)cc4F)n(C)c(=O)c(C)c32)c1 [Trametinib] (partner 0.02 µM)
Outline: as §1

AT-7519 + Navitoclax = compound: O=C(NC1CCNCC1)c1n[nH]cc1NC(=O)c1c(Cl)cccc1Cl [AT-7519] + CC1(C)CCC(c2ccc(Cl)cc2)=C(CN2CCN(c3ccc(C(=O)NS(=O)(=O)c4ccc(N[C@H](CCN5CCOCC5)CSc5ccccc5)c(S(=O)(=O)C(F)(F)F)c4)cc3)CC2)C1 [Navitoclax] (partner 0.5 µM)
Outline: as §1

For NCI-H2170, the relative viability ([1]; first compound 0.08 µM) was 0.494, the relative viability ([1]; first compound 0.253 µM) was 0.454 and the relative viability ([1]; first compound 0.8 µM) was 0.464. The relative viability ([1]; first compound 2.53 µM) was 0.429, the relative viability ([1]; first compound 8 µM) was 0.459 and the relative viability ([2]; first compound 0.08 µM) was 0.46. The relative viability ([2]; first compound 0.253 µM) was 0.404, the relative viability ([2]; first compound 0.8 µM) was 0.417 and the relative viability ([2]; first compound 2.53 µM) was 0.424. For the same cell line, the relative viability ([2]; first compound 8 µM) was 0.391, the relative viability ([3]; first compound 0.08 µM) was 1.06 and the relative viability ([3]; first compound 0.253 µM) was 0.856. It also gave a relative viability ([3]; first compound 0.8 µM) of 0.83, a relative viability ([3]; first compound 2.53 µM) of 0.984 and a relative viability ([3]; first compound 8 µM) of 0.927. For the same cell line, the relative viability (AT-7519 + Navitoclax; first compound 0.01 µM) was 0.566, the relative viability (AT-7519 + Navitoclax; first compound 0.03162 µM) was 0.497 and the relative viability (AT-7519 + Navitoclax; first compound 0.3162 µM) was 0.61. For the same cell line, the relative viability (AT-7519 + Navitoclax; first compound 1 µM) was 0.45.
NCI-H1299 showed a relative viability (AT-7519 + Navitoclax; first compound 0.01 µM) of 1.12, a relative viability (AT-7519 + Navitoclax; first compound 0.03162 µM) of 1.02 and a relative viability (AT-7519 + Navitoclax; first compound 0.3162 µM) of 1.08. It also gave a relative viability (AT-7519 + Navitoclax; first compound 1 µM) of 1.24.
Work on EBC-1 yielded a relative viability (AT-7519 + Navitoclax; first compound 0.01 µM) of 0.368, a relative viability (AT-7519 + Navitoclax; first compound 0.03162 µM) of 0.347 and a relative viability (AT-7519 + Navitoclax; first compound 0.3162 µM) of 0.329. The relative viability (AT-7519 + Navitoclax; first compound 1 µM) was 0.159.
NCI-H1648 was tested, and the relative viability ([1]; first compound 0.253 µM) was 0.525, the relative viability ([1]; first compound 8 µM) was 0.551 and the relative viability ([3]; first compound 0.253 µM) was 0.57. For the same cell line, the relative viability ([3]; first compound 8 µM) was 0.59.
NCI-H650 gave a relative viability ([1]; first compound 0.08 µM) of 0.324, a relative viability ([1]; first compound 0.253 µM) of 0.354 and a relative viability ([1]; first compound 0.8 µM) of 0.329. The relative viability ([1]; first compound 2.53 µM) was 0.317, the relative viability ([1]; first compound 8 µM) was 0.31 and the relative viability ([2]; first compound 0.08 µM) was 0.413. For the same cell line, the relative viability ([2]; first compound 0.253 µM) was 0.42, the relative viability ([2]; first compound 0.8 µM) was 0.437 and the relative viability ([2]; first compound 2.53 µM) was 0.49. The relative viability ([2]; first compound 8 µM) was 0.309, the relative viability ([3]; first compound 0.08 µM) was 0.947 and the relative viability ([3]; first compound 0.253 µM) was 0.947. The relative viability ([3]; first compound 0.8 µM) was 0.875, the relative viability ([3]; first compound 2.53 µM) was 0.948 and the relative viability ([3]; first compound 8 µM) was 0.894.
Work on A549 yielded a relative viability ([1]; first compound 0.08 µM) of 0.4, a relative viability ([1]; first compound 0.253 µM) of 0.252 and a relative viability ([1]; first compound 0.8 µM) of 0.286. It also gave a relative viability ([1]; first compound 2.53 µM) of 0.231, a relative viability ([1]; first compound 8 µM) of 0.207 and a relative viability ([2]; first compound 0.08 µM) of 0.203. The relative viability ([2]; first compound 0.253 µM) was 0.155, the relative viability ([2]; first compound 0.8 µM) was 0.189 and the relative viability ([2]; first compound 2.53 µM) was 0.186. For the same cell line, the relative viability ([2]; first compound 8 µM) was 0.0602, the relative viability (AT-7519 + Navitoclax; first compound 0.01 µM) was 1.18 and the relative viability (AT-7519 + Navitoclax; first compound 0.03162 µM) was 1.25. For the same cell line, the relative viability (AT-7519 + Navitoclax; first compound 0.3162 µM) was 1.15 and the relative viability (AT-7519 + Navitoclax; first compound 1 µM) was 0.837.
NCI-H358 gave a relative viability ([1]; first compound 0.08 µM) of 0.245, a relative viability ([1]; first compound 0.253 µM) of 0.216 and a relative viability ([1]; first compound 0.8 µM) of 0.218. The relative viability ([1]; first compound 2.53 µM) was 0.203, the relative viability ([1]; first compound 8 µM) was 0.132 and the relative viability ([2]; first compound 0.08 µM) was 0.35. The relative viability ([2]; first compound 0.253 µM) was 0.35, the relative viability ([2]; first compound 0.8 µM) was 0.339 and the relative viability ([2]; first compound 2.53 µM) was 0.345. The relative viability ([2]; first compound 8 µM) was 0.327, the relative viability ([3]; first compound 0.08 µM) was 0.158 and the relative viability ([3]; first compound 0.253 µM) was 0.128. It also gave a relative viability ([3]; first compound 0.8 µM) of 0.142, a relative viability ([3]; first compound 2.53 µM) of 0.136 and a relative viability ([3]; first compound 8 µM) of 0.144.
For NCI-H1563, the relative viability ([2]; first compound 0.08 µM) was 0.63, the relative viability ([2]; first compound 0.253 µM) was 0.677 and the relative viability ([2]; first compound 0.8 µM) was 0.684. It also gave a relative viability ([2]; first compound 2.53 µM) of 0.626 and a relative viability ([2]; first compound 8 µM) of 0.629.
With NCI-H522 the relative viability ([1]; first compound 0.08 µM) was 0.561, the relative viability ([1]; first compound 0.253 µM) was 0.644 and the relative viability ([1]; first compound 0.8 µM) was 0.689. The relative viability ([1]; first compound 2.53 µM) was 0.683, the relative viability ([1]; first compound 8 µM) was 0.6 and the relative viability ([2]; first compound 0.08 µM) was 0.658. It also gave a relative viability ([2]; first compound 0.253 µM) of 0.64, a relative viability ([2]; first compound 0.8 µM) of 0.71 and a relative viability ([2]; first compound 2.53 µM) of 0.603. It also gave a relative viability ([2]; first compound 8 µM) of 0.612, a relative viability ([3]; first compound 0.08 µM) of 0.494 and a relative viability ([3]; first compound 0.253 µM) of 0.676. The relative viability ([3]; first compound 0.8 µM) was 0.748, the relative viability ([3]; first compound 2.53 µM) was 0.791 and the relative viability ([3]; first compound 8 µM) was 0.894.
For IA-LM, the relative viability (AT-7519 + Navitoclax; first compound 0.01 µM) was 0.917, the relative viability (AT-7519 + Navitoclax; first compound 0.03162 µM) was 0.865 and the relative viability (AT-7519 + Navitoclax; first compound 0.3162 µM) was 0.69. It also gave a relative viability (AT-7519 + Navitoclax; first compound 1 µM) of 0.435.
In the case of NCI-H1703, the relative viability (AT-7519 + Navitoclax; first compound 0.01 µM) is reported as 0.956, the relative viability (AT-7519 + Navitoclax; first compound 0.03162 µM) is reported as 1.01 and the relative viability (AT-7519 + Navitoclax; first compound 0.3162 µM) is reported as 1.01. For the same cell line, the relative viability (AT-7519 + Navitoclax; first compound 1 µM) was 0.225.
In the case of LCLC-103H, the relative viability ([1]; first compound 0.08 µM) is reported as 0.811, the relative viability ([1]; first compound 0.253 µM) is reported as 0.774 and the relative viability ([1]; first compound 0.8 µM) is reported as 0.655. The relative viability ([1]; first compound 2.53 µM) was 0.744, the relative viability ([1]; first compound 8 µM) was 0.732 and the relative viability ([2]; first compound 0.08 µM) was 0.33. It also gave a relative viability ([2]; first compound 0.253 µM) of 0.356, a relative viability ([2]; first compound 0.8 µM) of 0.298 and a relative viability ([2]; first compound 2.53 µM) of 0.358. It also gave a relative viability ([2]; first compound 8 µM) of 0.369, a relative viability ([3]; first compound 0.08 µM) of 0.661 and a relative viability ([3]; first compound 0.253 µM) of 0.706. The relative viability ([3]; first compound 0.8 µM) was 0.658, the relative viability ([3]; first compound 2.53 µM) was 0.667 and the relative viability ([3]; first compound 8 µM) was 0.675.
In the case of SW 900, the relative viability ([1]; first compound 0.08 µM) is reported as 0.442, the relative viability ([1]; first compound 0.253 µM) is reported as 0.412 and the relative viability ([1]; first compound 0.8 µM) is reported as 0.448. The relative viability ([1]; first compound 2.53 µM) was 0.473, the relative viability ([1]; first compound 8 µM) was 0.538 and the relative viability ([2]; first compound 0.08 µM) was 0.576. For the same cell line, the relative viability ([2]; first compound 0.253 µM) was 0.669, the relative viability ([2]; first compound 0.8 µM) was 0.517 and the relative viability ([2]; first compound 2.53 µM) was 0.552. The relative viability ([2]; first compound 8 µM) was 0.275, the relative viability ([3]; first compound 0.08 µM) was 0.873 and the relative viability ([3]; first compound 0.253 µM) was 0.764. The relative viability ([3]; first compound 0.8 µM) was 0.699, the relative viability ([3]; first compound 2.53 µM) was 0.968 and the relative viability ([3]; first compound 8 µM) was 0.821.
